The supplement of paper PMC10307832

Experiments:
Assay in all cases: relative viability (nuclei count vs DMSO), 5 days (fraction); higher = more cells survive
[1] = compound: C1=CC=C(C(=C1)C2=CC=C(C=C2)C3=CSC4=C3C(=C(C(=O)N4)C#N)O)O + CC(C)C[C@H](NC(=O)[C@H](Cc1ccccc1)NC(=O)c1cnccn1)B(O)O [Bortezomib] (partner 0.002 µM)
Outline: (§1)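 Nuclei were stained with Hoechst during a one-step fixation (final 0.05% Triton X-100, 1% formaldehyde, 1 ug/ml Hoechst) carried out 5 days after dosing, then counted on 4× images. The cells, lung cancer lines in 1536-well plates, had been dosed by pin tool the day after seeding with one drug alone or a fixed anchor-drug dose plus five library-drug doses (not always all listed) in √10 steps. Relative viability is the nuclei count in treated wells divided by that in vehicle wells, and each value is the median of duplicate plates.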

[2] = compound: C1=CC=C(C(=C1)C2=CC=C(C=C2)C3=CSC4=C3C(=C(C(=O)N4)C#N)O)O + COc1cc2c(Oc3ccc(NC(=O)C4(C(=O)Nc5ccc(F)cc5)CC4)cc3F)ccnc2cc1OCCCN1CCOCC1 [Foretinib] (partner 0.25 µM)
Outline: as §1

TGX 221 + Tozasertib = compound: CC1=CN2C(=O)C=C(N=C2C(=C1)C(C)NC3=CC=CC=C3)N4CCOCC4 [TGX 221] + Cc1cc(Nc2cc(N3CCN(C)CC3)nc(Sc3ccc(NC(=O)C4CC4)cc3)n2)n[nH]1 [Tozasertib] (partner 0.1 µM)
Outline: as §1

[3] = compound: O=C(CCCCCCNC(=O)c1cnc(N(c2ccccc2)c2ccccc2)nc1)NO [Ricolinostat] + O=C(CCCCCCC(=O)Nc1ccccc1)NO [Vorinostat] (partner 1 µM)
Outline: as §1

Cell Line | relative viability ([1]; first compound 0.08 µM) | relative viability ([1]; first compound 0.253 µM) | relative viability ([1]; first compound 0.8 µM) | relative viability ([1]; first compound 2.53 µM) | relative viability ([1]; first compound 8 µM) | relative viability ([2]; first compound 0.253 µM) | relative viability ([2]; first compound 0.8 µM) | relative viability ([2]; first compound 2.53 µM) | relative viability ([2]; first compound 8 µM) | relative viability (TGX 221 + Tozasertib; first compound 0.08 µM) | relative viability (TGX 221 + Tozasertib; first compound 0.253 µM) | relative viability (TGX 221 + Tozasertib; first compound 0.8 µM) | relative viability (TGX 221 + Tozasertib; first compound 2.53 µM) | relative viability (TGX 221 + Tozasertib; first compound 8 µM) | relative viability ([3]; first compound 0.08 µM) | relative viability ([3]; first compound 0.253 µM) | relative viability ([3]; first compound 0.8 µM) | relative viability ([3]; first compound 2.53 µM) | relative viability ([2]; first compound 0.08 µM)
201T | 1.09 | 1.13 | 1.14 | 1.09 | 1.13 | 1.12 | 1.23 | 0.988 | 0.954 | 0.915 | 0.933 | 0.955 | 0.833 | 0.808 | 0.818 | 0.951 | 0.959 | 0.843 | –
A549 | – | – | – | – | – | 1.07 | 0.971 | 0.756 | 0.649 | – | – | – | – | – | – | – | – | – | 0.688
A-427 | 0.963 | 1.05 | 1.02 | 1.03 | 1.06 | 1.18 | 1.19 | 1.1 | 1.18 | 0.194 | 0.213 | 0.211 | 0.197 | 0.208 | 0.789 | 0.789 | 0.624 | 0.752 | 1.16
ABC-1 | 0.281 | 0.326 | 0.326 | 0.364 | 0.324 | 1.13 | 1.05 | 0.951 | 1.09 | 0.192 | 0.157 | 0.203 | 0.188 | 0.161 | 1.02 | 1.06 | 0.749 | 0.762 | 1
BEN | 0.578 | 0.789 | 0.944 | 0.892 | 0.676 | 0.611 | 0.668 | 0.646 | 0.634 | 0.51 | 0.505 | 0.489 | 0.473 | 0.496 | 0.517 | 0.543 | 0.592 | 0.498 | 0.503
CAL-12T | – | 0.898 | 0.911 | 0.936 | 0.804 | 1.13 | 1.2 | 1.19 | 1.01 | 0.324 | 0.329 | 0.322 | 0.314 | 0.2 | 0.801 | 0.524 | 0.698 | 0.379 | 0.951
COR-L23 | 0.864 | 0.703 | 1.11 | 1.09 | 0.496 | 1.08 | 1.13 | 1.07 | 0.909 | 0.168 | 0.222 | 0.187 | 0.164 | 0.179 | 0.406 | 0.383 | 0.388 | 0.297 | 0.966
COR-L 105 | 0.767 | 0.78 | 0.819 | 0.779 | 0.58 | 1.33 | 0.997 | 0.943 | 0.994 | 0.412 | 0.418 | 0.309 | 0.395 | 0.323 | 0.794 | 0.825 | 0.643 | 0.7 | 1.24
Calu-6 | 1.18 | 1.14 | 1.26 | 1.06 | 0.971 | 0.967 | 0.909 | 0.94 | 0.773 | – | – | – | – | – | – | – | – | – | 0.985
ChaGo-K-1 | 0.658 | 0.955 | 0.957 | 1.21 | 0.954 | 0.9 | 1.08 | 1.02 | 0.723 | 0.22 | 0.202 | 0.216 | 0.219 | 0.191 | 0.717 | 0.762 | 0.73 | 0.523 | 0.882
EBC-1 | 0.629 | 0.435 | 0.489 | 0.598 | 0.509 | 0.101 | 0.123 | 0.0897 | 0.115 | – | – | – | – | – | – | – | – | – | 0.103
EKVX | 0.879 | 0.998 | 1.03 | 1.02 | 0.917 | 0.828 | 0.799 | 0.831 | 0.743 | 0.381 | 0.343 | 0.329 | 0.317 | 0.272 | 0.617 | 0.724 | 0.62 | 0.74 | 0.882
EMC-BAC-2 | 0.995 | 1.25 | 1.15 | 1.05 | 0.957 | 1.1 | 0.989 | 0.963 | 0.896 | 0.255 | 0.318 | 0.296 | 0.307 | 0.275 | 0.398 | 0.417 | 0.25 | 0.293 | 1.07
EPLC-272H | – | 0.973 | 0.852 | 0.858 | 0.652 | 0.813 | 0.772 | 0.708 | 0.524 | 0.187 | 0.275 | 0.282 | 0.186 | 0.138 | 0.343 | 0.396 | 0.313 | 0.174 | 0.613
H3255 | 0.79 | 0.802 | 0.646 | 0.789 | 0.686 | 0.803 | 0.738 | 0.844 | 1.07 | 0.449 | 0.529 | 0.692 | 0.563 | 0.613 | 0.735 | 1.09 | 0.672 | 0.591 | 0.715
HARA | – | – | 1.25 | 1.03 | 1.13 | 1.08 | 0.938 | 0.882 | 0.706 | 0.147 | 0.105 | 0.123 | 0.1 | 0.0992 | 0.496 | 0.446 | 0.377 | 0.373 | 0.721
HCC-15 | 0.816 | 1.14 | 1.02 | 1.16 | 1.14 | 1.1 | 1.13 | 1.12 | 0.898 | 0.438 | 0.463 | 0.407 | 0.323 | 0.237 | 0.768 | 0.746 | 0.691 | 0.618 | 0.996
HCC-44 | 0.899 | 0.918 | 0.909 | 0.92 | 0.976 | – | – | – | – | – | 0.947 | 1.03 | 0.92 | 0.695 | 1.16 | 0.99 | 1.06 | 1.06 | –
HCC-78 | 0.529 | 0.771 | 0.536 | 0.417 | 0.428 | 0.629 | 0.579 | 0.498 | 0.52 | 0.344 | 0.432 | 0.371 | 0.268 | 0.347 | – | 0.433 | 0.395 | 0.362 | 0.649
